Results: patent publication US20210161146A1, “COMPOSITIONS AND METHODS FOR INHIBITING PATHOGENS ON PLANTS” (CH2O INCORPORATED, priority 2018, published 2021)

Experiments:
[1] = system: Red Blotch Virus (Grablovirus or GRBav); assay: Field trials on grape vines infected with Red Blotch Virus; format: in vivo
Protocol: Field trials were performed on grape vines infected with Red Blotch Virus (Grablovirus or GRBav).
Grape vines were treated with (36% 36% hydrochloric acid, 8% 60% active HEDPA, 0.5% 120 grain vinegar, 0.5% 85% phosphoric acid, and 55% water, all by weight) and (3.1% 60% active HEDPA, 1.6% 45% active potassium hydroxide, […], all by weight). ClO2 was made using a CH2O-ClO2 generator, and applied using an orchard sprayer. 200 gallons of treated water was applied per acre, and the treated water contained 15 ppm ClO2. The air temperature was 70° F.-90° F. on the days of application.
Half of the treated rows were pruned with shears dipped in water containing 30 to 50 ppm chlorine bleach.

[2] = system: Erwinia amylovora ("Fire Blight"); assay: Field experiment in apple and pear tree orchard infected with Fire Blight; format: in vivo
Protocol: An apple and pear tree orchard infected with Erwinia amylovora (“Fire Blight”) was treated with 2 ppm, 5 ppm, 10 ppm, and 25 ppm ClO2 as described herein. Previous unsuccessful treatments included foliar medications and metal (Cu) suspended in oil, and Tetramyacin and Oxytetracycline application. These are very expensive medication option(s) that are becoming obsolete w/resistance.
The treatment protocol at this orchard included a three step approach: a) irrigation water; b) topical application before first bloom (e.g., begin topical treatment before primary bloom event and all the way through second blooming event); and c) ooze treatment/vector suppression. Given the timing of this trial, only step C is relevant.
Trees were sprayed when the temperature reached a minimum of 50° F. The temperature for treating bacterial ooze should be between 75-90° F., with highest “safe” rates of ClO2 used to prevent spread through insect and pollination activity. The residual phosphorus (from phosphonates) should have lasting protection properties even days after a topical application.
Rows were marked based on the concentration of ClO2 to be applied. Each concentration rate was applied slowly over four rows of trees. Two rows of trees were left untreated between each of the treated rows to prevent drift. After an application at a particular concentration was complete, the pump speed was increased or decreased to adjust the ClO2 concentration for the next application.

[3] = system: Jack Frost Blight; assay: Orchard #6 field treatment of blight-infected apple trees; format: in vivo
Protocol: Apple trees at Orchard #6 infected with Jack Frost Blight (FIGS. 9A, 9B and 9C) were treated with 2 ppm (FIG. 10A), 5 ppm, 10 ppm (FIG. 10B) or 25 ppm (FIG. 10C) of ClO2. While blight was easily found in untreated areas of the block, only 2 strikes were found in the 2 ppm test area, no strikes were found in the 5 ppm area, 1 strike was found in the 10 ppm area, and 1 strike was found at the very end of the 25 ppm area (it is unclear whether that part of the area was actually treated or treated fully).

[4] = system: Erwinia amylovora ("Fire Blight"); details: before the ClO2 trial; cited from earlier work

Molecule | less GRBav than the untreated control area ([1]; 15 ppm ClO2, 200 gallons per acre, pruned with ClO2-sanitized shears) | less virus than the untreated control area ([1]; 15 ppm ClO2, 200 gallons per acre, pruned with shears dipped in chlorine bleach) | reduction in the amount of virus on the grape plants ([1]; 15 ppm ClO2, both pruning groups) | new blight strikes observed ([2]; 2 ppm zone) | new blight found ([2]; remaining test zones (5 ppm, 10 ppm, 25 ppm)) | ClO2 concentration effective for disease control ([2]; topical spray on infected trees) | blight strikes found in test area ([3]; 2 ppm ClO2 test area) | blight strikes found in test area ([3]; 5 ppm ClO2 area) | blight strikes found in test area ([3]; 10 ppm ClO2 area) | blight strikes found in test area ([3]; 25 ppm ClO2 area, very end (unclear whether treated fully)) | outcome of previous treatments of the orchard [4]
[O][Cl+][O-] [ClO2, chlorine dioxide] | approximately 85% | approximately 75% | 75-85% | One | no new blight | ≥ 5 ppm | 2 strikes | no strikes | 1 strike | 1 strike | 
Tetramyacin |  |  |  |  |  |  |  |  |  |  | unsuccessful
